{"source": "patent US8480909B2", "about": "“Method for treatment of canals” (priority 2009, dated 2013)", "key": {"[1]": {"tested_on": "zooplankton", "conditions": "cited from earlier work"}, "[2]": {"tested_on": "mollusks", "conditions": "cited from earlier work"}, "[3]": {"tested_on": "insects", "conditions": "cited from earlier work"}, "[4]": {"tested_on": "fish", "conditions": "cited from earlier work"}, "[5]": {"tested_on": "crustaceans", "conditions": "cited from earlier work"}, "[6]": {"tested_on": "amphibians", "conditions": "cited from earlier work"}, "[7]": {"conditions": "cited from earlier work"}, "[8]": {"tested_on": "rats", "conditions": "oral; cited from earlier work"}, "[9]": {"tested_on": "algae", "assay": "Treatment of agricultural-water canal with air-stream-entrained calcium hypochlorite; visual observation of algae", "format": "in vivo", "conditions": "per quarter-mile canal section", "excerpt": "The device and method of the present invention were employed to treat a canal, and visual observations of the amount of algae present in the canal before this treatment, and periodically after this treatment, are set forth in Tables 1-3 below. (The visual observations are accurate and realistic evaluations because the visual amount of algae in the canal correlates well to actual biological-debris problems.) This canal is fed from a large water reservoir which has about thirty percent of its surface covered with algae. This canal is therefore continuously being inoculated with algae which enters with the source water. The flow rate of the water when entering the canal is about one hundred eighty cubic feet per second. Due to water usage from the various growers along the canal, this initial water flow rate decreases at points along the canal, and then decreases dramatically over the last mile to about twenty cubic feet per second. This canal is a typical example of one which is in need of treatment to remediate organic debris. Prior to the treatments of this Example 1, this canal was being point treated with acrolein every eight to ten days during the height of the irrigation season to obtain a satisfactory treatment. In this Example 1, the canal was treated three times along substantially its entire length by propelling a calcium hypochlorite-entrained air stream to the water surface and to the sides of the canal from a delivery system suspended off a mobile unit as described above. An operator made visual assessments of the degree of organic debris build-up along the canal and adjusted the concentration of calcium hypochlorite in the air stream accordingly. The pre-treatment and post-treatment conditions of the canal are shown in Tables 1, 2 and 3 below where the visual assessment of organic debris, made at each quarter mile along the length of the canal, are reported at: (a) just before treatment; (b) twelve hours after the treatment; (c) about a week (seven or eight days) after the treatment; and about a week and a half (ten, twelve and ten days, respectively) after treatment. The just before treatment assessment for the second and third treatments set forth in Tables 2 and 3 below are also continued-assessments of the prior treatment (i.e., the T2-b observations in Table 2 are the same as the T1-10d observations in Table 1, and the T3-b observations in Table 3 are the same as the T2-12d observations in Table 2). Further, any relative terms in an observation refer to the prior observation made at the given time; for example, the “slightly larger patches” observation under T1-10d at 0.75 to 1.00 miles in Table 1 below refers to the patches being slightly larger than the patches observed at T1-10d at 0.50 to 0.75 miles, and not to the canal condition observed at T1-7d at 0.75 to 1.00 miles."}}, "note": "“Also recorded” adds a separate entry of the source.", "data": [{"compound": "C=CC=O", "note": "[Acrolein]", "values": [{"measurement": "average acute toxicity", "setting": "[1]", "value": "highly toxic"}, {"measurement": "average acute toxicity", "setting": "[2]", "value": "highly toxic"}, {"measurement": "average acute toxicity", "setting": "[3]", "value": "moderately toxic"}, {"measurement": "average acute toxicity", "setting": "[4]", "value": "highly toxic"}, {"measurement": "average acute toxicity", "setting": "[5]", "value": "moderately toxic"}, {"measurement": "average acute toxicity", "setting": "[6]", "value": "very highly toxic"}, {"measurement": "water solubility", "setting": "[7]", "value": "238,000 mg/L"}]}, {"compound": "[Ca+2].[O-]Cl.[O-]Cl", "note": "[calcium hypochlorite]", "values": [{"measurement": "LD50", "setting": "[8]", "value": 850, "unit": "gm/100 kg"}, {"measurement": "Canal Description (visual observation of algae)", "setting": "[9]; T1-12 h: 12 hr. after Treatment 1, canal section 2.75 to 3.00 miles", "value": "Canal visually free of algae."}, {"measurement": "Canal Description (visual observation of algae)", "setting": "[9]; T1-12 h: 12 hr. after Treatment 1, canal section 3.25 to 3.50 miles", "value": "Canal is visually free of algae."}, {"measurement": "Canal Description (visual observation of algae)", "setting": "[9]; T1-12 h: 12 hr. after Treatment 1, canal section 4.75 to 5.00 miles", "value": "Small amounts of discolored/dying algae are adhering to the bottom of the canal."}, {"measurement": "Canal Description (visual observation of algae)", "setting": "[9]; T1-12 h: 12 hr. after Treatment 1, canal section 5.50 to 5.75 miles", "value": "Small amounts of discolored/dying algae are adhering to bottom of the canal."}, {"measurement": "Canal Description (visual observation of algae)", "setting": "[9]; T1-12 h: 12 hr. after Treatment 1, canal section 5.75 to 6.00 miles", "value": "Small amounts of discolored/dying algae are adhering to the bottom and sides of"}, {"measurement": "Canal Description (visual observation of algae)", "setting": "[9]; T1-7 d: 7 days after Treatment 1, canal section 0.00 to 0.25 miles", "value": "Clear, visually free of algae."}, {"measurement": "Canal Description (visual observation of algae)", "setting": "[9]; T1-7 d: 7 days after Treatment 1, canal section 2.75 to 3.00 miles", "value": "Slight amount of algae is growing on the water surface of the canal."}, {"measurement": "Canal Description (visual observation of algae)", "setting": "[9]; T1-7 d: 7 days after Treatment 1, canal section 3.25 to 3.50 miles", "value": "Slight amount of algae is growing on the water surface and along the sides of"}, {"measurement": "Canal Description (visual observation of algae)", "setting": "[9]; T1-7 d: 7 days after Treatment 1, canal section 5.25 to 5.50 miles", "value": "Slight amount of is algae is growing on the water surface and along the sides"}, {"measurement": "Canal Description (visual observation of algae)", "setting": "[9]; T1-7 d: 7 days after Treatment 1, canal section 5.50 to 5.75 miles", "value": "Slight amount of algae is growing on the water surface and along the sides"}, {"measurement": "Canal Description (visual observation of algae)", "setting": "[9]; T1-7 d: 7 days after Treatment 1, canal section 6.50 to 6.75 miles", "value": "Small amount of algae is growing on the water surface. Slight amount of algae"}, {"measurement": "Canal Description (visual observation of algae)", "setting": "[9]; T1-7 d: 7 days after Treatment 1, canal section 6.75 to 7.00 miles", "value": "Small amount of algae is growing on the water surface. Small amount of algae"}, {"measurement": "Canal Description (visual observation of algae)", "setting": "[9]; T1-10 d: 10 days after Treatment 1", "value": "Slight amount of algae is growing along the sides of the canal; also recorded: Slight amount of algae is growing on the water surface and along the sides of; also recorded: Small amount of algae is growing on the water surface and along the sides of; also recorded: Slightly larger patches of algae are growing on the water surface and along"}, {"measurement": "Canal Description (visual observation of algae)", "setting": "[9]; T2-12 h: 12 hr. after Treatment 2", "value": "Canal visually free of algae; also recorded: Small amounts of discolored/dying algae are adhering to bottom of the canal; also recorded: Small amounts of discolored/dying algae are adhering to the bottom and sides of"}, {"measurement": "Canal Description (visual observation of algae)", "setting": "[9]; T2-8 d: 8 days after Treatment 2, canal section 0.00 to 0.25 miles", "value": "Clear, visually free of algae."}, {"measurement": "Canal Description (visual observation of algae)", "setting": "[9]; T2-8 d: 8 days after Treatment 2, canal section 3.00 to 3.25 miles", "value": "Slight amount of algae is growing on the water surface of the canal."}, {"measurement": "Canal Description (visual observation of algae)", "setting": "[9]; T2-8 d: 8 days after Treatment 2, canal section 4.00 to 4.25 miles", "value": "Slight amount of algae is growing on the water surface and along the sides of"}, {"measurement": "Canal Description (visual observation of algae)", "setting": "[9]; T2-8 d: 8 days after Treatment 2, canal section 5.50 to 5.75 miles", "value": "Slight amount of algae is growing on the water surface and along the sides"}, {"measurement": "Canal Description (visual observation of algae)", "setting": "[9]; T2-8 d: 8 days after Treatment 2, canal section 6.50 to 6.75 miles", "value": "Small amount of algae is growing on the water surface. The amount of algae"}, {"measurement": "Canal Description (visual observation of algae)", "setting": "[9]; T2-8 d: 8 days after Treatment 2, canal section 6.75 to 7.00 miles", "value": "Small amount of algae on the water surface. The amount of algae on the sides"}, {"measurement": "Canal Description (visual observation of algae)", "setting": "[9]; T2-12 d: 12 days after Treatment 2", "value": "Very slight amount of algae is growing along the sides of the canal; also recorded: Slight amount of algae is growing along the sides of the canal; also recorded: Slight amount of algae is growing on the water surface and along the sides; also recorded: Slight amount of algae is growing on water surface and along the sides and; also recorded: Slightly more algae is growing on water surface and along the sides of the; also recorded: Slightly more algae is growing on the water surface and along the sides of"}, {"measurement": "Canal Description (visual observation of algae)", "setting": "[9]; T2-b: just before Treatment 2, 10 days after Treatment 1", "value": "Slight amount of algae is growing on the water surface and along the sides of the; also recorded: Slightly larger patches of algae are growing on the water surface and along the sides; also recorded: Slight amount of algae is growing along the sides of the canal"}, {"measurement": "Canal Description (visual observation of algae)", "setting": "[9]; T3-12 h: 12 hr. after Treatment 3, canal section 3.25 to 3.50 miles", "value": "Canal visually free of algae."}, {"measurement": "Canal Description (visual observation of algae)", "setting": "[9]; T3-12 h: 12 hr. after Treatment 3, canal section 5.00 to 5.25 miles", "value": "Small amounts of discolored/dying algae are present."}, {"measurement": "Canal Description (visual observation of algae)", "setting": "[9]; T3-12 h: 12 hr. after Treatment 3, canal section 5.75 to 6.00 miles", "value": "Small amounts of discolored/dying algae are adhering to the bottom and sides of"}, {"measurement": "Canal Description (visual observation of algae)", "setting": "[9]; T3-b: just before Treatment 3, 12 days after Treatment 2", "value": "Slight amount of algae is growing along the sides of the canal; also recorded: Slightly more algae is growing on the water surface and along the sides of the canal; also recorded: More algae is growing on the water surface of the canal. Small amount of algae is; also recorded: Very slight amount of algae is growing along the sides of the canal; also recorded: More algae is growing on the water surface of the canal. More algae is growing up"}]}]}
